Experimental findings from patent US10551389B2, “Target binding molecules identified by kinetic target-guided synthesis” (UNIVERSITY OF SOUTH FLORIDA, priority 2013, dated 2020) are described below.

Broadly, the IC50 is the concentration needed to halve the response being measured.

The structures appear in SMILES notation.

The target in one experiment is Bcl-XL (Homo sapiens, UniProt Q07817). The experiment can be described thus: Inhibition of Bcl-XL (disruption of Bcl-XL/Bim interaction). It counts as binding. The settings on record: for % Inhibition (25 μM) Bcl-XL: compound at 25 μM; for % Inhibition (50 μM) Bcl-XL: compound at 50 μM.
A further experiment has as its target Mcl-1 (Homo sapiens, UniProt Q07820). Put plainly: Inhibition of Mcl-1 (disruption of Mcl-1/Bim interaction). It counts as binding. The settings on record: for % Inhibition (25 μM) Mcl-1: compound at 25 μM; for % Inhibition (50 μM) Mcl-1: compound at 50 μM.

Sequence of Bcl-XL (Q07817 whole entry, species assumed): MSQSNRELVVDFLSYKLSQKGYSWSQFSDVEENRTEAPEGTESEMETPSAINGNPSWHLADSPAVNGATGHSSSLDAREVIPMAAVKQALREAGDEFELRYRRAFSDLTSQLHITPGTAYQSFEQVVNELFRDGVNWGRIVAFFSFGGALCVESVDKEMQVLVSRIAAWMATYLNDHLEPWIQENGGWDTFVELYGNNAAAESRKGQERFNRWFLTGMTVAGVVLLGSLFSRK
Sequence of Mcl-1 (Q07820 whole entry, species assumed): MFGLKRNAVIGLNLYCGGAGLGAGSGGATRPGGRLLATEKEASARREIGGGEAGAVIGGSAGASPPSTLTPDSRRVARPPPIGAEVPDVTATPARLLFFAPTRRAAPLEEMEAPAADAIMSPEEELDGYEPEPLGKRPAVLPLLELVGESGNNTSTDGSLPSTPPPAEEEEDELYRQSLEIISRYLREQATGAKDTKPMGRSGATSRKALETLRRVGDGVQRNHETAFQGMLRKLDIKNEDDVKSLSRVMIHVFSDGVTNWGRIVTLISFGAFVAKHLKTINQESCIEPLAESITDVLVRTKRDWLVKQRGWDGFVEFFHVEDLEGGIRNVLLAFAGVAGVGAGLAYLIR

For `O=C(NS(=O)(=O)c1ccc(-c2cc3ccccc3s2)cc1)c1ccc(CN2C(=O)C(c3ccc(F)cc3F)=C(c3ccc(F)cc3F)C2=O)cc1` [SZ37TA42], at Bcl-XL, the “% Inhibition (25 μM) Bcl-XL” value was determined as 21.8% and the “% Inhibition (50 μM) Bcl-XL” value was below 2.0%. Further, at Mcl-1, the “% Inhibition (25 μM) Mcl-1” value is reported as below 2.0% and the “% Inhibition (50 μM) Mcl-1” value was 22.7%.

Turning to `O=C(NS(=O)(=O)c1ccc(NCCSc2ccccc2)c([N+](=O)[O-])c1)c1ccc(CCc2ccccn2)cc1` [SZATA17], at Bcl-XL, the IC50 amounted to 2.08 µM, the “% Inhibition (25 μM) Bcl-XL” value was 83.7% and the “% Inhibition (50 μM) Bcl-XL” value stood at 90.6%. In addition, at Mcl-1, the IC50 is 60.6 µM, the “% Inhibition (25 μM) Mcl-1” value turned out to be 30.8% and the “% Inhibition (50 μM) Mcl-1” value is listed as 44.7%.
